Results taken from patent US20100267796A1, “THERAPEUTIC AGENT FOR IRRITABLE BOWEL SYNDROME” (KYOWA HAKKO KOGYO CO., LTD., priority 2006, published 2010).

Tested on: loperamide-induced constipation
Assay: Activity on loperamide-induced constipation
Type: in vivo, male SD rats
Settings: doses of 0.01, 0.1 and 1 mg/kg p.o. 1 hour before loperamide 5 mg/kg; rats, n=15; vs. control group
Procedure: The therapeutic effect of the compounds of the present application on constipation was evaluated by the method described below. Compound 1-1 was used as a test compound.
To Compound 1-1, 0.5 w/v % methyl cellulose 400 (MC, manufactured by Wako Pure Chemical Industries, Ltd.) was added, followed by lightly mixing with a mixer (TTM-1, Shibata Scientific Technology Ltd.). Then, the resultant mixture was subjected to ultrasonic treatment (1 minute) with an ultrasonic cleaner (Sine Sonic UA100, Hitachi Kokusai Denki Engineering Co., Ltd.), and suspended by re-mixing with the mixer to prepare a suspension at a concentration of 0.2 mg/mL. […]
A day before the test, the rat tails were numbered for identification and the body weights were measured. […] The collected stools were dried (100° C., 6 hours) with a dryer (SH42, Yamato Scientific Co., Ltd.), and the weight was measured with an electronic balance (AB54, Mettler-Toledo AG). […]
With respect to the fecal amount, a dry weight was used, and an amount of stools for 0 to 8 hours was used as a measurement parameter. The fecal pellets were collected in a tare (aluminum foil) whose weight was previously measured, and the weight was calculated by subtracting the weight of the tare from the weight including the tare weight. […]

With C[C@](O)(C(=O)Nc1cccc2c1C(=O)c1sccc1CS2(=O)=O)C(F)(F)F [Compound 1-1] the “fecal amount (dry weight) 0 to 8 hours after the administration of loperamide” value was “significantly inhibits a decrease in fecal amount”.
